Assay results as given in patent US20230382858A1 (Beckley Psytech Limited, priority 2020, published 2023).

Tests used:
Beagle dogs = experiment: 14-day repeat-dose intranasal toxicity study with 14-day recovery in dogs (Study 62959); format: in vivo; conditions: dog; for animals with increased triglyceride level: vs control
Method: (§1) Assessments of mortality, clinical signs, olfactory reflex, body weights, food consumption, ophthalmology, and electrocardiograms were performed. In addition, clinical pathology assessments (hematology, coagulation, clinical chemistry and urinalysis) were evaluated once pretreatment and at termination. Blood samples were collected from the jugular vein of all animals on Days 1 and 14, at up to 8 time points relative to treatment, for analysis of test item concentration in plasma and the subsequent calculation of toxicokinetic parameters. Following dosing, the Main animals were euthanized and subjected to a complete necropsy examination on Day 15. […] All Main and Recovery study animals underwent complete necropsy examinations, selected tissues/organs were retained, and microscopic evaluations of a standard set of tissues were performed.

male Sprague-Dawley rats = experiment: Functional Observational Battery (FOB), effects on CNS function (ITR study 15951); format: in vivo; conditions: rat
Method: The test and control/vehicle items were administered by single dose intranasal administration to both nostrils, as shown in Table 1.
Parameters monitored included mortality and clinical signs. General behavioral changes were assessed using FOB at 6 timepoints: before dosing, and at 15 minutes, 1, 2, 4, and 24 hours postdosing. On each occasion, the FOB was performed at 4 stages: when the animals were in their home cage, while handling the animals, when the animals were freely moving in an open-field, and when they received diverse stimuli for reactivity evaluation. The body temperature and neuromuscular strength were also measured on each of the occasions detailed above.

Dog = experiment: Summary of clinical observations in applicant-sponsored dog toxicity studies; format: in vivo; conditions: Dog 1.0 mg/kg (33 mg HED), preliminary data, ongoing study
Source text: Based on preliminary data from another ongoing study in dogs, it has been observed that the site of blood sampling in dogs may impact the measured plasma exposure. Samples from the jugular vein may result in higher apparent exposure levels than samples from the cephalic vein, which might be due to the local transmucosal route of administration (also reported in the scientific literature (Illum, 2003; Sohlberg, 2013)). Therefore, dose escalation criteria for the Phase 1 Single Ascending Dose study are based on assessment of clinical criteria, safety factors and exposure. A maximum dose of 14 mg has been designated.

[1] = Toxicokinetics in Study 700041; format: in vivo; conditions: rat, intranasal 20 mg/kg/day, Day 14, Male
Method: (§2) The animals were monitored for mortality, clinical signs, respiratory measurements, body weights, food consumption, and body temperature. Ophthalmoscopic examinations and respiratory function tests were performed on all animals at scheduled timepoints. Clinical pathology assessments (hematology, coagulation, clinical chemistry, and urinalysis) were evaluated at termination. […] Following dosing, the Main animals were euthanized and subjected to a complete necropsy examination on Day 15. […] TK animals were euthanized after the last blood collection and discarded without further examination. At terminal euthanasia, selected tissues/organs were weighed, and microscopic evaluations of a standard set of tissues including the nasal turbinates (4 sections) and brain (7 sections) were performed for all Main and Recovery study animals.
(§3) Following dosing, animals in the Main group were euthanized and subjected to a necropsy examination on Day 15.

[2] = Toxicokinetics in Study 62958 (plasma 5MeODMT, LC/MS/MS); format: in vivo; conditions: dog, daily intranasal instillation, 7-day treatment period
Sprague Dawley rats = experiment: 14-day repeat-dose intranasal toxicity study with 14-day recovery in rats (Study 700041); format: in vivo, rat; conditions: for clinical signs: male and female; for microscopic changes in nasal cavities: male and/or female
Method: as §2, §3
Toxicity was based on the following parameters monitored: mortality/morbidity, clinical observations, body weights/gains, food consumption, ophthalmoscopy, clinical pathology (hematology, coagulation, chemistry, and urinalysis), necropsy observations, selected organ weights, and microscopic examination of a complete set of standard tissues including 4 cross levels of the nasal cavity and 7 sections of the brain.

dogs = experiment: Maximum tolerated dose followed by 7-day repeat-dose toxicology in dogs (Study 62958); format: in vivo; conditions: dog
Method: In support of these objectives, the study consisted of 2 individual phases.
The test item was administered once by intranasal instillation to one male and female dog for up to 5 dose levels until the highest tolerable dose (MTD) was determined as described in Table 5.
During Phase 2, assessments of mortality, clinical signs, body weights and food consumption were performed. […] Following the last dosing, all animals were euthanized and subjected to a necropsy examination on Day 8. The necropsy consisted of an external examination; including reference to all clinically-recorded lesions, as well as a detailed internal examination. Study plan specific tissues/organs were collected and preserved following necropsy but were not further examined microscopically.

[3] = Toxicokinetics in Study 62959; format: in vivo; conditions: dog
Method: as §1
For toxicokinetics, a series of 8 blood samples were collected from the jugular vein from all treated animals on each of Days 1 and 14 of the treatment period at 2, 5, 10, 15, 30, and 60 minutes as well as 3 and 8 hours after treatment.

[4] = single intranasal 1, 5, and 10 mg/kg, all dose levels
[5] = rat, dose levels ≤75 mg/kg/day for 14 days
[6] = dose escalation phase, single intranasal 2-5 mg/kg
[7] = phase 2, MTD once daily 5 days then twice daily Days 6 and 7
[8] = intranasal 0.8 mg/kg/day, Day 1, Female
[9] = intranasal 0.8 mg/kg/day, Day 1, Male
[10] = intranasal 0.8 mg/kg/day, Day 14, Female

COc1ccc2[nH]cc(CCN(C)C)c2c1 [BPL-5MEO, 5-methoxy-N,N-dimethyltryptamine]
body temperature (Beagle dogs; Day 14, high dose group, both sexes, 15 and 30 minutes postdose): Transient body temperature increases
Triglyceride, Mean ± SD Day 14 (Beagle dogs; Group 2, 0.4 mg/kg/day, Females): 0.46 ± 0.61 mmol/L
Triglyceride, Mean ± SD Day 14 (Beagle dogs; Group 2, 0.4 mg/kg/day, Males): 0.40 ± 0.11 mmol/L
Triglyceride, Mean ± SD Day 14 (Beagle dogs; Group 3, 0.8 mg/kg/day, Females): 0.47 ± 0.22 mmol/L
Triglyceride, Mean ± SD Day 14 (Beagle dogs; Group 3, 0.8 mg/kg/day, Males): 0.44 ± 0.07 mmol/L
animals with increased triglyceride level (Beagle dogs; Group 3 female): 1/3
animals with increased triglyceride level (Beagle dogs; Group 4 females): 4/5
animals with increased triglyceride level (Beagle dogs; Group 4 male): 1/5
additional clinical observations (Beagle dogs; Mid and High dose groups): eye discharge and shaking
time to resolution of clinical signs (Beagle dogs; all treated groups): ≤ 90 min
transient clinical observation (Beagle dogs; all treated groups): incoordination, vocalization, mydriasis, decreased or increased activity, increased respiration, gnawing cage wire, excessive licking of nose or lips and circling
additional clinical observation (Beagle dogs; high dose male animals): Erect penis
clinical sign in one animal (male Sprague-Dawley rats; single intranasal 10 mg/kg): twitching
FOB autonomic domain (male Sprague-Dawley rats; [4]): salivation, piloerection, increased respiration, dilated pupils and changes in body temperature
FOB neurological (sensorimotor)/neuromuscular domain (male Sprague-Dawley rats; [4]): transient changes in gait (difficulty in movement)
FOB behavioral domain (male Sprague-Dawley rats; single intranasal 1.5, 3, 10 mg/kg, 15 minutes postdose): transient decreased activity, lying on the cage floor, and decreased rearing
clinical signs in some animals (male Sprague-Dawley rats; single intranasal 3 and 10 mg/kg): Tremors, salivation, and gasping
clinical signs immediately following dosing (male Sprague-Dawley rats; single intranasal, all dose groups): decreased activity, lying on the cage floor, shallow/increased respiration and dilated pupils
Clinical observation (Dog): Slight tremor
t1/2 [1]: 8.58 min
accumulation [2]: did not accumulate
adverse effect on reproductive tissues (Sprague Dawley rats; 14-day pivotal GLP intranasal toxicity studies in rats and dogs): no evidence of an adverse effect on reproductive tissues
Thymus Mean Absolute Weight (Sprague Dawley rats; male rats, Group 2 (5 mg/kg/day), compared to the control value): −4 percentage
respiratory rate (Sprague Dawley rats; rat, 20 minutes postdose, vs pretreatment or control): decreases in respiratory rates
body temperature (Sprague Dawley rats; rat, Day 14, 15 and 30 minutes postdose, all treated male animals): slight body temperature increases
clinical signs (Sprague Dawley rats; rat, Group 2 (Low Dose) 5 mg/kg/day): incoordination, shaking, salivation, decreased activity, lying on cage floor and sensitive to touch
clinical signs (Sprague Dawley rats; rat, Group 3 (Mid Dose) 20 mg/kg/day): incoordination, shaking (or tremor), increased or shallow respiration, mydriasis, salivation, decreased activity, partially closed eyes, lying on cage floor and sensitive to touch
clinical signs (Sprague Dawley rats; rat, Group 4 (High Dose) 75 mg/kg/day): incoordination, shaking (or tremor), increased or shallow respiration, mydriasis, salivation, decreased activity, partially closed eyes, lying on cage floor and sensitive to touch
macroscopic findings (Sprague Dawley rats; rat, Main and Recovery groups): no macroscopic findings
microscopic findings in respiratory, transitional and/or olfactory epithelium of nasal cavities 1-4 (Sprague Dawley rats; rat, Main group): minimal to mild changes
microscopic changes in nasal cavities (Sprague Dawley rats; rat, Main group, 20 mg/kg/day (Group 3)): Minimal degeneration of the respiratory epithelium of the nasal cavities 1 and 2
microscopic changes in nasal cavities (Sprague Dawley rats; rat, Main group, 5 and/or 20 mg/kg/day (Group 2 and 3)): Minimal degeneration of the olfactory epithelium of the nasal cavities 2 and 3
reversibility of nasal microscopic changes (Sprague Dawley rats; rat, Recovery group, 14-day recovery period): incomplete but progressive ongoing reversal of epithelial degeneration
body weight gain (Sprague Dawley rats; rat, both sexes, Days 1 to 14): Slight, generally dose-dependent body weight gain suppression
activated partial thromboplastin times (APTT) (Sprague Dawley rats; rat, both sexes, mid (20 mg/kg/day) and high (75 mg/kg/day) dose groups, vs control): increased
clinical chemistry and urinalysis (Sprague Dawley rats; [5]): no changes in clinical chemistry and urinalysis parameters
food consumption (Sprague Dawley rats; [5]): no changes in food consumption
ocular effect (Sprague Dawley rats; [5]): no adverse ocular effect
mortality (Sprague Dawley rats; rat, intranasal 5, 20, 75 mg/kg/day, 14 days): No mortality
tolerability (Sprague Dawley rats; rat, intranasal, dose levels ≤75 mg/kg/day for 14 consecutive days): tolerated
platelet, neutrophil, monocyte and basophil counts (Sprague Dawley rats; rat, mid and high dose groups, both sexes, vs control): slightly increased
food intake (dogs; dose escalation phase, after Dose 1 and Dose 2): Slight decreases in food intake
clinical signs (dogs; [6]): gnawing cage wire, dilated pupils, changes in respiration, incoordination, decreased activity, vocalization, salivation, erect penis (for males) and shaking
mortality and bodyweights (dogs; [6]): no BPL-5MEO-related effects on mortality or bodyweights
duration of convulsion shortly after dosing (dogs; male animal, last escalating dose 3.5 mg/kg/day): 8 min
clinical signs (dogs; [7]): muscle stiffness, gnawing cage wire, dilated pupils, changes in respiration, decreased activity, incoordination, vocalization, salivation, erect penis (for the male) and shaking
mortality and bodyweights (dogs; [7]): no test item-related effects on mortality or bodyweights
AUC(0-inf) ([3]; Beagle, plasma, inhaled or intranasal, 1.5 mg/kg/day, combined for both sexes, read-out: AUCINF_obs corresponding to NOAEL): 220 ng·h/mL
Cmax ([3]; intranasal 0.4 mg/kg/day, Day 1, Male): 343 ng/mL
t1/2 ([3]; intranasal 0.4 mg/kg/day, Day 14, Female): 42.4 min
Tmax ([3]; intranasal 0.4 mg/kg/day, Day 14, Male): 6.66 min
AUCINF—obs [3, 8]: 265 ng·h/mL
t1/2 [3, 8]: 43.8 min
AUCINF—obs [3, 9]: 160 ng·h/mL
Tmax [3, 9]: 6.66 min
AUC0-Tlast [3, 10]: 248 ng·h/mL
Cmax [3, 10]: 244 ng/mL
Tmax ([3]; intranasal 0.8 mg/kg/day, Day 14, Male): 6.66 min
Tmax ([3]; intranasal 2.5 & […], Day 1, Female): 6.66 min
t1/2 ([3]; intranasal 2.5 & […], Day 14, Male): 49 min
